Source: US12491252B2, “Substituted 3-amino-5-phenylbenzamide compounds as covalent inhibitors of enhancer zeste homolog 2 (EZH2) and proteolysis-targeting chimeric derivatives thereof (PROTACs) that induce degradation of EZH2” (Northwestern University, priority 2021, dated 2025)
One block for each compound: values may come before it.

Key:
[1] = system: H3K27me3; experiment: Western blot of H3K27me3 levels in C4-2B cells; assay type: cell-based; conditions: FIG. 14, 10 μM for 6 days
[2] = system: LNCaP cells; experiment: Live imaging cell proliferation of LNCaP cells; assay type: cell-based; conditions: FIG. 17A, monitored over 168 hours
Excerpt: FIG. 17A-17B. (FIG. 17A) Live imaging cell proliferation of LNCaP cells. […] DMSO is set as the negative control. […] (FIG. 17B) Colony assays using LnCaP cells after treatment with the indicated compounds for 7 days.

[3] = system: LNCaP cells; experiment: WST cell proliferation/viability assay in LNCaP cells; assay type: cell-based; conditions: FIG. 19A; LNCaP; 6 days
Procedure: FIG. 19A-19B. (FIG. 19A) WST cell proliferation assay of indicated compounds in LNCaP cells. […] (FIG. 19B) Effects of indicated compounds on EZH2, AR, and FOXA1 by western blot at 1 μM in LNCaP cells.
(§1) Cell proliferation was measured using WST-1 Kit (Clontech) according to manufacturer's protocol.

[4] = system: C4-2B cells; experiment: Imaging of C4-2B cells (cell density); assay type: cell-based; conditions: FIG. 21, 12 days' treatment
Excerpt: FIG. 21. Imaging of C4-2B cells after 12 days' treatment with the indicated compounds.

[5] = target: T1, EZH2 (Homo sapiens, UniProt Q15910); experiment: Western blot of EZH2 protein in DU-145 cells; conditions: FIG. 27, 6 days treatment
T1 sequence (Q15910 whole entry): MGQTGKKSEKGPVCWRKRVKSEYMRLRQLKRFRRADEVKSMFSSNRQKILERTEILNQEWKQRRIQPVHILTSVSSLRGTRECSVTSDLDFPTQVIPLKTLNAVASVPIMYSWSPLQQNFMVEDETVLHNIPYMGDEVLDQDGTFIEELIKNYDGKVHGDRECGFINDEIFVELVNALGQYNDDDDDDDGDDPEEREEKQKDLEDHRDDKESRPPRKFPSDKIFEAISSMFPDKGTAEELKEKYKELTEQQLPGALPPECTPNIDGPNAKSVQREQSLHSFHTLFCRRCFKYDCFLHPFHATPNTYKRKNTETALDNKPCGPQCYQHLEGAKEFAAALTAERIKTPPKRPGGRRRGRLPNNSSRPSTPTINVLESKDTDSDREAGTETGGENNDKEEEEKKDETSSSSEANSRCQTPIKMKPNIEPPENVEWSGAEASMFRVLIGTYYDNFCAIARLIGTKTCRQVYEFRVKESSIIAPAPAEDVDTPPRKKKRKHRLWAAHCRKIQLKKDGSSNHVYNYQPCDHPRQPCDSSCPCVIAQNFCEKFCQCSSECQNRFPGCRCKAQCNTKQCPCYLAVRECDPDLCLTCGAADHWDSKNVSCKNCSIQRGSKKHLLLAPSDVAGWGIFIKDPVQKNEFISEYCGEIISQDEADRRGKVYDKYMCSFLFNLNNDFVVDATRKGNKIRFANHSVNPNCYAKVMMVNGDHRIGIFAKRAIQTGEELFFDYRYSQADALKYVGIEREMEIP
T1 sequence (Q15022 whole entry partner): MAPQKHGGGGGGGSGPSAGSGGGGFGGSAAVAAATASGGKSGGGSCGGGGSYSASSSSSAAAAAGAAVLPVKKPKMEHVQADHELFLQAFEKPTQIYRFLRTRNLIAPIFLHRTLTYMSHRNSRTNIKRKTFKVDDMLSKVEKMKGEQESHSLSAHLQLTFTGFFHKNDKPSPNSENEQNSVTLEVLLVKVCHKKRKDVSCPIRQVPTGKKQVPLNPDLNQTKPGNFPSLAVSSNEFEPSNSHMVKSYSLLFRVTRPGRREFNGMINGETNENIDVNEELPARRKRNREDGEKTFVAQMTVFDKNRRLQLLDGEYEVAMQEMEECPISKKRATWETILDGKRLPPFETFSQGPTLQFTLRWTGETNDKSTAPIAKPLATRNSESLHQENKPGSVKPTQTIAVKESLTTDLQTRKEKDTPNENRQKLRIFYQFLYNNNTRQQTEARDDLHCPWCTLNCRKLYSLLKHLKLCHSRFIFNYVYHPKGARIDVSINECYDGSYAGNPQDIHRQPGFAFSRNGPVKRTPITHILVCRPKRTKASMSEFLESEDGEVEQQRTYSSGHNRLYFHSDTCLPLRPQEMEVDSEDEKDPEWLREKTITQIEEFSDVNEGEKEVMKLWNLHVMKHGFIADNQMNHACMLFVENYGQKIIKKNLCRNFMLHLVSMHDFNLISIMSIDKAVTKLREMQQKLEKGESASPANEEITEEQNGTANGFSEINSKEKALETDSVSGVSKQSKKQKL
T1 sequence (O75530 whole entry partner): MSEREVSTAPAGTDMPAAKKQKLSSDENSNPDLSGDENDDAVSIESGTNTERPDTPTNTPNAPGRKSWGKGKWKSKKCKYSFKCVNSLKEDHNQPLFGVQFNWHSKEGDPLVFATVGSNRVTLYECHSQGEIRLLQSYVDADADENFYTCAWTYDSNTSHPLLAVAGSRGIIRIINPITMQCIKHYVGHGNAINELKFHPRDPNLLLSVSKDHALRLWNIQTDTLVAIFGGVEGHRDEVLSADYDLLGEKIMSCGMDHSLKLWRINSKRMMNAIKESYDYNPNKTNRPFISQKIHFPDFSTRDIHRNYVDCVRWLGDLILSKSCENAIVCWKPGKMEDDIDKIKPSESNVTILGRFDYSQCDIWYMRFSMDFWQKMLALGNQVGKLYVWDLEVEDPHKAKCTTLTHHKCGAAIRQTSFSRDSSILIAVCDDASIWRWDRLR
Excerpt: (Upper right western blot) Western blot analysis of EZH2 protein in DU-145 cells after 6 days treatment.

[6] = target: T1, EZH2; experiment: Western blot of EZH2 protein in PC3 cells; conditions: FIG. 26, 6 days treatment
Excerpt: (Upper right western blot) Western blot analysis of EZH2 protein in PC3 cells after 6 days treatment.

[7] = system: C4-2B cells; experiment: Colony assay using C4-2B cells; assay type: cell-based; conditions: FIG. 20B, treatment for 7 days
Procedure: (§2) FIG. 20A-20B. (FIG. 20A) Live imaging cell proliferation of C4-2B cells. Cells were treated with indicated compounds and monitored over 168 hours for proliferation by phase object confluence. DMSO is set as the negative control. […] (FIG. 20B) Colony assays using C4-2B cells after treatment with the indicated compounds for 7 days.

[8] = system: LNCaP cells; experiment: Colony assay using LnCaP cells; assay type: cell-based; conditions: FIG. 17B, treatment for 7 days
Procedure: as §2, with “FIG. 17A-17B.” for “FIG. 20A-20B.”, “(FIG. 17A)” for “(FIG. 20A)”, “of LNCaP” for “of C4-2B”, “(FIG. 17B)” for “(FIG. 20B)”, “using LnCaP” for “using C4-2B”

[9] = system: C4-2B cells; experiment: WST cell proliferation assay in C4-2B cells; assay type: cell-based; conditions: FIG. 22, 6 days
Procedure: FIG. 22A-22B. WST cell proliferation assay of indicated compounds in C4-2B cells. Cells were treated for 6 days. […] (FIG. 19B) Effects of indicated compounds on EZH2, AR, and FOXA1 by western blot at 1 μM in C4-2B cells.
as §1

[10] = system: C4-2B cells; experiment: Live imaging cell proliferation of C4-2B cells; assay type: cell-based; conditions: FIG. 20A, monitored over 168 hours
Excerpt: FIG. 20A-20B. (FIG. 20A) Live imaging cell proliferation of C4-2B cells. […] DMSO is set as the negative control. […] (FIG. 20B) Colony assays using C4-2B cells after treatment with the indicated compounds for 7 days.

[11] = system: LNCaP cells; experiment: Imaging of LnCaP cells (cell density); assay type: cell-based; conditions: FIG. 18, 12 days' treatment
Excerpt: FIG. 18. Imaging of LnCaP cells after 12 days' treatment with the indicated compounds.

[12] = system: SUZ12; experiment: Western blot of SUZ12 in C4-2B cells; assay type: cell-based; conditions: FIG. 14, 10 μM for 6 days
[13] = Pharmacokinetics in mice, IP cassette dosing, plasma LC/MS/MS; assay type: in vivo, C57Bl/6 mouse; conditions: mouse, C57Bl/6 mice, 4 mg/kg IP, cassette format
Procedure: FIG. 35. Pharmacokinetics of indicated compounds. Compounds were administered to C57Bl/6 mouse mice at 4 mg/kg using intraperitoneal (IP) injection in cassette format. Plasma was collected at the indicated time points and analyzed by LC/MS/MS using standard methods.
For assessing pharmacokinetics, compounds were administered to C57Bl/6 mouse mice at 4 mg/kg using intraperitoneal (IP) injection in cassette format. Plasma was collected at the indicated time points and analyzed by LC/MS/MS using standard methods.

[14] = target: T1, EZH2; experiment: Western blot of EZH2 protein in C4-2B cells; conditions: FIG. 14, 10 μM for 6 days
[15] = system: SUZ12; experiment: Western blot of SUZ12 in SU-DHL4 cells; assay type: cell-based; conditions: FIG. 33, 48 hours
Procedure: (§3) FIG. 33. […] Cell were treated for 48 hours with the indicated concentrations of compounds.

[16] = system: EED; experiment: Western blot of EED in SU-DHL4 cells; assay type: cell-based; conditions: FIG. 33, 48 hours
Procedure: as §3

[17] = system: EED; experiment: Western blot of EED in SU-DHL6 cells; assay type: cell-based; conditions: FIG. 33, 48 hours
Procedure: as §3

[18] = system: SU-DHL6 cells; experiment: WST cell viability assay in SU-DHL6 cells; assay type: cell-based; conditions: Table 7; WST1 with higher dose on SU-DHL6
Procedure: as §1

[19] = system: SU-DHL4 cells; experiment: WST cell viability assay in SU-DHL4 cells; assay type: cell-based
Procedure: as §1

[20] = system: SUZ12; experiment: Western blot of SUZ12 in SU-DHL6 cells; assay type: cell-based; conditions: FIG. 33, 48 hours
Procedure: as §3

EZH2 protein (western blot) [5]: significant reduction in EZH2 | EZH2 protein (western blot) [6]: significant reduction in EZH2 | Cmax [13]: 487 nM | half-life [13]: 390 min | Degradation of EZH2 [14]: strong degradation of EZH2
SMILES: CCN(c1cc(-c2ccc(CN3CCN(CCCCCCCCCCCC(=O)N[C@H](C(=O)N4C[C@H](O)C[C@H]4C(=O)NCc4ccc(-c5scnc5C)cc4)C(C)(C)C)CC3)cc2)cc(C(=O)NCc2c(C)cc(C)[nH]c2=O)c1C)C1CCOCC1 [Compound 6287]
H3K27me3 levels [1]: reduced H3K27me3 levels | Cell proliferation by phase object confluence [2]: greatest ability to decrease LnCaP proliferation | Inhibition of proliferation (WST) [3]: similarly potent effects on inhibiting the proliferation | Cell density by imaging [4]: significant reduction in the cell density | Colonies [7]: significant reduction in the colonies | Colonies [8]: significant reduction in the colonies | Inhibition of proliferation (WST) [9]: similarly potent effects on inhibiting the proliferation | Cell proliferation by phase object confluence [10]: decrease C4-2B proliferation | Cell density by imaging [11]: significant reduction in the cell density | Reduction of PRC2 component SUZ12 [12]: reduction of PRC2 component SUZ12

SMILES: CCN(c1cc(-c2ccc(CN3CCOCC3)cc2)cc(C(=O)NCc2c(C)cc(C)[nH]c2=O)c1C)C1CCOCC1 [EPZ-6438, reference compound]
Degradation of SUZ12 [15]: little or no effect | Degradation of EED [16]: little or no effect | Colonies [7]: reduction in colonies versus DMSO negative control | Degradation of EED [17]: little or no effect | Colonies [8]: reduction in colonies versus DMSO negative control | HillSlope (best-fit value) [18]: −0.03015 | logIC50 (best-fit value) [18]: Unstable | HillSlope (best-fit value) ([19]; Table 6, WST1 with higher dose on SU-DHL4): 0.005835 | HillSlope (best-fit value) ([19]; Table 8, WST1 within 1 μM on SU-DHL4): −0.1692 | HillSlope (best-fit value) ([19]; Table 9, WST1 within 1 μM on SU-DHL4 (as titled)): −0.4432 | Degradation of SUZ12 [20]: little or no effect
